From patent US6610677B2, “Pyrazole compounds useful as protein kinase inhibitors” (Vertex Pharmaceuticals Incorporated, priority 2000, dated 2003) come the findings set out here.

As a reminder, the pKi is the Ki on a negative log10 scale, so that one unit is a factor of ten. Low values mean a large Ki, high ones a small Ki.

pKi: −log10 of the molar value.

The target of this test is T1, GSK-3β (AA 1-420) (Homo sapiens, UniProt P49841).
T1 construct: GSK-3β (AA 1-420)
T1 sequence (P49841 whole entry, the tested form may be a part): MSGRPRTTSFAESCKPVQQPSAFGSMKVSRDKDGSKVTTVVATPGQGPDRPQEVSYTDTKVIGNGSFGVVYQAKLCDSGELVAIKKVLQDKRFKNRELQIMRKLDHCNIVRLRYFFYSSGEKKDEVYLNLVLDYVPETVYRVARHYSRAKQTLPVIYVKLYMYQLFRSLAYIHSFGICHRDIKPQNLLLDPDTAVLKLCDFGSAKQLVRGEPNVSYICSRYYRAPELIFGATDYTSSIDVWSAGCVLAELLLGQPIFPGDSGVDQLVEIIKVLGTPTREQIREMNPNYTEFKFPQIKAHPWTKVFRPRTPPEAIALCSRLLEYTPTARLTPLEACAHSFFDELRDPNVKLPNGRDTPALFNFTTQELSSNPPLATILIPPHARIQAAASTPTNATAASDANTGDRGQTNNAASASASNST
The experiment in a line: Ki determination for the inhibition of GSK-3 (coupled enzyme system). It is filed as biochemical. Particulars: 20 μM ATP, 300 μM peptide, 20 nM GSK-3β, 30° C. The procedure:
Compounds were screened for their ability to inhibit GSK-3β (AA 1-420) activity using a standard coupled enzyme system (Fox et al. (1998) Protein Sci. 7, 2249). Reactions were carried out in a solution containing 100 mM HEPES (pH 7.5), 10 mM MgCl2, 25 mM NaCl, 300 μM NADH, 1 mM DTT and 1.5% DMSO. Final substrate concentrations in the assay were 20 μM ATP (Sigma Chemicals, St Louis, Mo.) and 300 μM peptide (HSSPHQS(PO3H2)EDEEE, American Peptide, Sunnyvale, Calif.). Reactions were carried out at 30° C. and 20 nM GSK-3β. Final concentrations of the components of the coupled enzyme system were 2.5 mM phosphoenolpyruvate, 300 μM NADH, 30 μg/ml pyruvate kinase and 10 μg/ml lactate dehydrogenase.
An assay stock buffer solution was prepared containing all of the reagents listed above with the exception of ATP and the test compound of interest. The assay stock buffer solution (175 μl) was incubated in a 96 well plate with 5 μl of the test compound of interest at final concentrations spanning 0.002 μM to 30 μM at 30° C. for 10 min. Typically, a 12 point titration was conducted by preparing serial dilutions (from 10 mM compound stocks) with DMSO of the test compounds in daughter plates. The reaction was initiated by the addition of 20 μl of ATP (final concentration 20 μM). Rates of reaction were obtained using a Molecular Devices Spectramax plate reader (Sunnyvale, Calif.) over 10 min at 30° C. The Ki values were determined from the rate data as a function of inhibitor concentration.
`Clc1ccccc1-c1nc2c(c(Nc3n[nH]c4ccccc34)n1)CCC2` [II-116, [2-(2-Chloro-phenyl)-6,7-dihydro-5H-cyclopentapyrimidin-4-yl]-(1H-indazol-3-yl)-amine] showed a pKi greater than 7.00.

The compound `Fc1cccc2c(Nc3nc(-c4ccccc4Cl)nc4c3CCC4)n[nH]c12` [II-117, [2-(2-Chloro-phenyl)-6,7-dihydro-5H-cyclopentapyrimidin-4-yl]-(7-fluoro-1H-indazol-3-yl)-amine] had a pKi greater than 7.00.

Take `Fc1cc(F)c2[nH]nc(Nc3nc(-c4ccccc4Cl)nc4c3CCC4)c2c1` [II-118, [2-(2-Chloro-phenyl)-6,7-dihydro-5H-cyclopentapyrimidin-4-yl]-(5,7-difluoro-1R-indazol-3-yl)-amine]: the pKi is greater than 7.00.

`FC(F)(F)c1ccccc1-c1nc2c(c(Nc3n[nH]c4ccccc34)n1)CCCCCC2` [II-119, (1H-Indazol-3-yl)-[2-(2-trifluoromethyl-phenyl)-5,6,7,8,9,10-hexahydro-cyclooctapyrimidin-4-yl]-amine]: the pKi was greater than 7.00.

`Fc1cccc2c(Nc3nc(-c4ccccc4C(F)(F)F)nc4c3CCCCCC4)n[nH]c12` [II-120, (7-Fluoro-1H-indazol-3-yl)-[2-(2-trifluoromethyl-phenyl)-5,6,7,8,9,10-hexahydro-cyclooctapyrimidin-4-yl]-amine] showed a pKi greater than 7.00.

Regarding `Fc1cc(F)c2[nH]nc(Nc3nc(-c4ccccc4C(F)(F)F)nc4c3CCCCCC4)c2c1` [II-121, (5,7-Difluoro-1H-indazol-3-yl)-[2-(2-trifluoromethyl-phenyl)-5,6,7,8,9,10-hexahydro-cyclooctapyrimidin-4-yl]-amine], the pKi was greater than 7.00.

`Fc1ccc2c(Nc3nc(-c4ccccc4C(F)(F)F)nc4ccccc34)n[nH]c2c1` [II-124, (6-Fluoro-1H-indazol-3-yl)-[2-(2-trifluoromethyl-phenyl)-quinazolin-4-yl]-amine] had a pKi greater than 7.00.

Compound `COC(=O)c1ccc2[nH]nc(Nc3nc(-c4ccccc4C(F)(F)F)nc4ccccc34)c2c1` [II-125, 3-[2-(2-Trifluoromethyl-phenyl)-quinazolin-4-ylamino]-1H-indazole-5-carboxylic acid methyl ester] gave a pKi greater than 7.00.

Compound `Cc1cc(Nc2nc(-c3cccc4ccccc34)nc3ccccc23)n[nH]1` [II-208, (5-Methyl-2H-pyrazol-3-yl)-[2-(2-naphthyl-1-yl)-quinazolin-4-yl]-amine] gave a pKi greater than 7.00.

Turning to `Cc1cc(Nc2nc(-c3ccccc3)nc3c2CCCCC3)n[nH]1` [III-8, (5-Methyl-2H-pyrazol-3-yl)-(2-phenyl-6,7,8,9-tetrahydro-5H-cycloheptapyrimidin-4-yl)-amine], the pKi is greater than 7.00.

With `Cc1cc(Nc2nc(-c3ccncc3)nc3ccc(Cl)cc23)[nH]n1` [III-29, (6-Chloro-2-pyridin-4-yl-quinazolin-4-yl)-(5-methyl-2H-pyrazol-3-yl)-amine], the pKi was 6.00 to 7.00.

Take `Cc1cc(Nc2nc(-c3ccc4c(c3)OCO4)nc3ccccc23)[nH]n1` [III-43, (2-Benzo[1,3]dioxol-5-yl-quinazolin-4-yl)-(5-methyl-2H-pyrazol-3-yl)-amine]: the pKi was 6.00 to 7.00.

With `Cc1cc(Nc2nc(-c3ccsc3)nc3ccccc23)[nH]n1` [III-62, (5-Methyl-2H-pyrazol-3-yl)-(2-thiophen-3-yl-quinazolin-4-yl)-amine], the pKi was greater than 7.00.

Compound `CC(C)NC(=O)c1cc(Nc2nc(-c3ccccc3)nc3ccccc23)[nH]n1` [III-81] gave a pKi of 4.70 to 6.00.

For the compound `COCCNC(=O)c1cc(Nc2nc(-c3ccccc3)nc3ccccc23)[nH]n1` [III-83], the pKi was 4.70 to 6.00.

On to `CCCNC(=O)c1cc(Nc2nc(-c3ccccc3)nc3ccccc23)[nH]n1` [III-88, (2-Phenyl-quinazolin-4-yl)-(5-propylcarbamoyl-2H-pyrazol-3-yl)-amine], for which the pKi is 6.00 to 7.00.

In turn, `O=C(NC1CC1)c1cc(Nc2nc(-c3ccccc3)nc3ccccc23)[nH]n1` [III-90, (5-Cyclopropylcarbamoyl-2H-pyrazol-3-yl)-(2-phenyl-quinazolin-4-yl)-amine] had a pKi of 6.00 to 7.00.

Compound `CC(C)CNC(=O)c1cc(Nc2nc(-c3ccccc3)nc3ccccc23)[nH]n1` [III-91, (5-Isobutylcarbamoyl-2H-pyrazol-3-yl)-(2-phenyl-quinazolin-4-yl)-amine] showed a pKi of 4.70 to 6.00.

With `Cc1cccc(NC(=O)c2cc(Nc3nc(-c4ccccc4)nc4ccccc34)[nH]n2)c1` [III-94, (2-Phenyl-quinazolin-4-yl)-(5-m-tolylcarbamoyl-2H-pyrazol-3-yl)-amine], the pKi is 4.70 to 6.00.

Regarding `Cc1ccc(NC(=O)c2cc(Nc3nc(-c4ccccc4)nc4ccccc34)[nH]n2)cc1` [III-95, (2-Phenyl-quinazolin-4-yl)-(5-p-tolylcarbamoyl-2H-pyrazol-3-yl)-amine], the pKi is 4.70 to 6.00.

With `CNC(=O)c1cc(Nc2nc(-c3ccccc3)nc3ccccc23)[nH]n1` [III-96, (5-Methylcarbamoyl-2H-pyrazol-3-yl)-(2-phenyl-quinazolin-4-yl)-amine], the pKi is 4.70 to 6.00.

As for `O=C(c1cc(Nc2nc(-c3ccccc3)nc3ccccc23)[nH]n1)N1CCOCC1` [III-97, [5-(Morpholine-4-carbonyl)-2H-pyrazol-3-yl]-(2-phenyl-quinazolin-4-yl)-amine], the pKi is 4.70 to 6.00.

Take `CN1CCN(C(=O)c2cc(Nc3nc(-c4ccccc4)nc4ccccc34)[nH]n2)CC1` [III-98, [5-(1-Methylpiperazine-4-carbonyl)-2H-pyrazol-3-yl]-(2-phenyl-quinazolin-4-yl)-amine]: the pKi is 4.70 to 6.00.

`O=C(NCCO)c1cc(Nc2nc(-c3ccccc3)nc3ccccc23)[nH]n1` [III-99] had a pKi of 4.70 to 6.00.

For `NC(=O)c1cc(Nc2nc(-c3ccccc3)nc3ccccc23)[nH]n1` [III-100, (5-Carbamoyl-2H-pyrazol-3-yl)-(2-phenyl-quinazolin-4-yl)-amine], the pKi is 4.70 to 6.00.

For `COC(=O)c1cc(Nc2nc(N3CCCCC3)nc3ccccc23)[nH]n1` [III-122, (5-Methoxycarbonyl-2H-pyrazol-3-yl)-[2-(piperidine-1-yl)-quinazolin-4-yl]-amine], the pKi is 6.00 to 7.00.

`O=C(c1cc(Nc2nc(N3CCCCC3)nc3ccccc23)[nH]n1)N1CCCCC1` [III-123, [5-(Piperidine-1-carbonyl)-2H-pyrazol-3-yl]-[2-(piperidine-1-yl)-quinazolin-4-yl]-amine] showed a pKi of 4.70 to 6.00.

Regarding `FC(F)(F)c1ccc2[nH]nc(Nc3nc(-c4ccccc4)nc4c3CCCC4)c2c1` [III-128, (2-Phenyl-5,6,7,8-tetrahydroquinazolin-4-yl)-(5-trifluoromethyl-1H-indazol-3-yl)-amine], the pKi is greater than 7.00.

For `Fc1cc(F)c2n[nH]c(Nc3nc(-c4ccccc4)nc4ccccc34)c2c1` [III-131, (5,7-Difluoro-1H-indazol-3-yl)-(2-phenyl-quinazolin-4-yl)-amine], the pKi was greater than 7.00.

As for `COc1cccc(-n2nc3c(Nc4nc(-c5ccccc5)nc5ccccc45)n[nH]c3cc2=O)c1` [III-134, [5-(3-Methoxy-phenyl)-6-oxo-5,6-dihydro-1H-pyrazolo[4,3-c]pyridazin-3-yl]-(2-phenyl-quinazolin-4-yl)-amine], the pKi is 6.00 to 7.00.

With `O=c1cc2[nH]nc(Nc3nc(-c4ccccc4)nc4ccccc34)c2nn1-c1ccccc1` [III-135, (6-Oxo-5-phenyl-5,6-dihydro-1H-pyrazolo[4,3-c]pyridazin-3-yl)-(2-phenyl-quinazolin-4-yl)-amine], the pKi was 6.00 to 7.00.

In turn, `COc1ccc(-n2nc3c(Nc4nc(-c5ccccc5)nc5ccccc45)n[nH]c3cc2=O)cc1` [III-136, [5-(4-Methoxy-phenyl)-6-oxo-5,6-dihydro-1H-pyrazolo[4,3-c]pyridazin-3-yl]-(2-phenyl-quinazolin-4-yl)-amine] had a pKi of 6.00 to 7.00.

The compound `O=c1cc2[nH]nc(Nc3nc(-c4ccccc4)nc4ccccc34)c2nn1-c1ccc(Cl)cc1Cl` [III-137, [5-(2,4-Dichloro-phenyl)-6-oxo-5,6-dihydro-1H-pyrazolo[4,3-c]pyridazin-3-yl]-(2-phenyl-quinazolin-4-yl)-amine] gave a negative-log Ki (pKi) of 4.70 to 6.00.

Compound `O=c1cc2[nH]nc(Nc3nc(-c4ccccc4)nc4ccccc34)c2nn1-c1cccc(C(F)(F)F)c1` [III-138, [6-Oxo-5-(3-trifluoromethyl-phenyl)-5,6-dihydro-1H-pyrazolo[4,3-c]pyridazin-3-yl]-(2-phenyl-quinazolin-4-yl)-amine] had a pKi of 6.00 to 7.00.

`O=c1cc2[nH]nc(Nc3nc(-c4ccccc4)nc4ccccc34)c2nn1-c1ccc(Oc2ccccc2)cc1` [III-139, [6-Oxo-5-(4-Phenoxy-phenyl)-5,6-dihydro-1H-pyrazolo[4,3-c]pyridazin-3-yl]-(2-phenyl-quinazolin-4-yl)-amine] had a pKi of 4.70 to 6.00.

`O=c1cc2[nH]nc(Nc3nc(-c4ccccc4)nc4ccccc34)c2nn1-c1ccc(Cl)cc1` [III-140, [5-(4-Chloro-phenyl)-6-oxo-5,6-dihydro-1H-pyrazolo[4,3-c]pyridazin-3-yl]-(2-phenyl-quinazolin-4-yl)-amine] had a pKi of 6.00 to 7.00.

On to `Cc1nccn1-c1nc(Nc2[nH]nc3ccccc23)c2ccccc2n1` [III-142], for which the pKi is 6.00 to 7.00.
